Reference: US5519021A, “Benzoxazinones as inhibitors of HIV reverse transcriptase” (priority 1995, dated 1996)
pIC50: −log10 of the molar value. Read-outs that look alike come from different tables or passages of the source.

Legend:
[1] = target: T1, recombinant HIV reverse transcriptase (HIV RTR) (Human immunodeficiency virus type 1 group M subtype B, UniProt P04585); experiment: Reverse transcriptase assay (wild type); type: biochemical, HIV-1
T1 construct: recombinant HIV reverse transcriptase (HIV RTR); made in house; host or cells: E. coli
Protocol: (§1) The assay measures the incorporation of tritiated deoxyguanosine monophosphate by recombinant HIV reverse transcriptase (HIV RTR) (or other RT) into acid-precipitable cDNA at the Km values of dGTP and poly r(C).cndot.oligo d(G)12-18.
(§2) The assays were carried out in 55 mM Tris (pH 8.2)-30 mM KCl-30 mM MgCl2 -1 mM dithiothreitol-20 μg of rC:dG 12-18 (Pharmacia) per ml-8 mM [^3 H]dGTP (New England Nuclear)-0.01% Triton X-100-50 mM ethylene glycol-bis(β-amino-ethyl ether)-N,N,N',N'-tetraacetic acid (EGTA)-1 mg of bovine serum albumin per ml. After 60 min of incubation at 37° C., acid-precipitable material was collected onto glass fiber filters by using a semiautomatic cell harvester. Bacterial cell extracts containing RT were diluted to within the linear range of the assay, and activity was determined in the presence and absence of inhibitor. Purified HIV-1 RT heterodimer produced in E. coli also served as a control.

A17 RT = target: T2, A17 RT (Human immunodeficiency virus type 1 group M subtype B, UniProt P04585, K690N/Y768C); experiment: biochemical; set-up: species or system HIV-1
T2 construct: A17 RT was employed in the assay; made in house; host or cells: bacteria
Protocol: as §1, §2
For the double mutant assay (dm), A17 RT was employed in the assay. […] Results are measured as IC50 dm in nanomoles/liter.

HIV-1 (wild-type) = experiment: Cell spread assay (MT-4 T-lymphoid cells); type: cell-based; conditions: Human immunodeficiency virus 1, MT4, 72 h, read-out: CIC*95
Protocol: Inhibition of the spread of HIV in cell culture was measured according to Nunberg, J. H. et al., J. Virol. 65, 4887 (1991 ). In this assay, MT-4 T-lymphoid cells were infected with HIV-1 (wild-type, unless otherwise indicated) by using a predetermined inoculum, and cultures were incubated for 24 h. At this time, ≤1% of the cells were positive by indirect immunofluorescence. Cells were then extensively washed and distributed into 96-well culture dishes. Serial twofold dilutions of inhibitor were added to the wells, and cultures were continued for 3 additional days. At 4 days postinfection, 100% of the cells in control cultures were infected. HIV-1 p24 accumulation was directly correlated with virus spread. The cell culture inhibitory concentration was defined as the inhibitor concentration in nanomoles/liter which reduced the spread of infection by at least 95%, or CIC95.

[2] = Table I, wild-type RT, read-out: IC*50 wt
[3] = Table I, concentration reducing spread of infection by at least 95%, MT-4 cells
[4] = Table II, wild-type RT, read-out: IC*50 wt

Compound: COc1ccc(C#CC2(C(F)(F)F)OC(=O)Nc3ccc(Cl)cc32)cc1 (stereo not drawn)
- pIC50 [1, 2]: 7.24
- pIC50 (A17 RT): 5.39

Compound: O=C1Nc2ccc(Cl)cc2C(C#Cc2ccccc2)(C(F)(F)F)O1 (racemic) [12(+/-), (±) 6-Chloro-4-phenylethynyl-4-trifluoromethyl-1,4-dihydro-2H-3,1-benzoxazin-2-one]
- pIC50 [1, 2]: 7.92
- IC95 (HIV-1 (wild-type); [3]): 25 nM
- pIC50 (A17 RT): 6.55

Compound: N#Cc1ccccc1C#CC1(C(F)(F)F)OC(=O)Nc2ccc(Cl)cc21 (racemic) [Compound 2, (+/-) 6-Chloro-4-(2-cyanophenyl)ethynyl-4-(1,1,1-trifluoromethyl)-1,4-dihydro-2H-3,1-benzoxazin-2-one]
- pIC50 [1, 2]: 7.60
- IC95 (HIV-1 (wild-type); [3]): 6 nM
- pIC50 (A17 RT): 6.32

Compound: O=C1Nc2ccc(Cl)cc2C(C#Cc2ccccc2)(C(F)(F)Cl)O1 (racemic) [Compound 5, (+/-) 4-(1-Chloro-1,1-difluoromethyl)-4-(2-phenylethynyl)-6-chloro-1,4-dihydro-2H-3,1-benzoxazin-2-one]
- pIC50 [1, 2]: 7.92
- pIC50 (A17 RT): 6.46

Compound: O=C1Nc2ccc(Cl)cc2C(C#CCN2CCCC2)(C(F)(F)F)O1 (racemic) [Compound 7, (+/-) 6-Chloro-4-(1,1,1-trifluoromethyl)-4-[(3-(1-pyrrolidinyl))-1-propynyl] -1,4-dihydro-2H-3,1-benzoxazin-2-one]
- pIC50 [1, 2]: 7.04
- pIC50 (A17 RT): 5.46

Compound: C=CCCC1(C(F)(F)F)OC(=O)Nc2ccc(Cl)cc21 (racemic) [Compound 15, (+/-) 4-(1,1,1,-trifluoromethyl)-4-(1-buten-4-yl)-6-chloro-1,4-dihydro-2H-3,1-benzoxazin-2-one]
- pIC50 [1, 2]: 7.54
- pIC50 (A17 RT): < 4.00

Compound: C#CC1(C(F)(F)F)OC(=O)Nc2ccc(Cl)cc21 (racemic) [Compound 26, (+/-) 6-Chloro-4-ethynyl-4-(1,1,1-trifluoromethyl)-1,4-dihydro-2H-3,1-benzoxazin-2-one]
- pIC50 [1, 2]: 9.62
- pIC50 (A17 RT): < 4.00

Compound: O=C1Nc2ccc(Cl)cc2[C@](C#Cc2ccccc2)(C(F)(F)F)O1 [3(+), (+) 6-Chloro-4-phenylethynyl-4-trifluoromethyl 1,4-dihydro-2H-3,1-benzoxazin-2-one]
- pIC50 [1]: 5.54
- IC95 (HIV-1 (wild-type); [3]): > 200 nM
- pIC50 (A17 RT): 4.43

Compound: O=C1Nc2ccc(Cl)cc2[C@@](C#Cc2ccccc2)(C(F)(F)F)O1 [4(-), (-) 6-Chloro-4-phenylethynyl-4-trifluoromethyl-1,4-dihydro-2H-3,1-benzoxazin-2-one]
- pIC50 [1]: 8.07
- IC95 (HIV-1 (wild-type)): 12 nM
- pIC50 (A17 RT): 7.16

Compound: O=C1Nc2ccc(Cl)cc2C(C#Cc2ccccc2[N+](=O)[O-])(C(F)(F)F)O1 (stereo not drawn) [Compound 6]
- pIC50 [1, 2]: 5.77
- pIC50 (A17 RT): 4.72

Compound: Cc1ccc(C#CC2(C(F)(F)F)OC(=O)Nc3ccc(Cl)cc32)cc1 (stereo not drawn) [Compound 8]
- pIC50 [1, 2]: 6.79
- pIC50 (A17 RT): 5.07

Compound: COc1cccc(C#CC2(C(F)(F)F)OC(=O)Nc3ccc(Cl)cc32)c1 (stereo not drawn) [Compound 10]
- pIC50 [1, 2]: 7.74
- pIC50 (A17 RT): 6.41

Compound: COc1ccccc1C#CC1(C(F)(F)F)OC(=O)Nc2ccc(Cl)cc21 (stereo not drawn) [Compound 11]
- pIC50 [1, 2]: 7.80
- IC95 (HIV-1 (wild-type); [3]): 6 nM
- pIC50 (A17 RT): 6.57

Compound: COC(=O)/C=C(/OC)C1(C(F)(F)F)OC(=O)Nc2ccc(Cl)cc21 (stereo not drawn) [Compound 13]
- pIC50 [1, 2]: 6.41
- pIC50 (A17 RT): 4.00

Compound: O=C1Nc2ccc(Cl)cc2C(CCCCl)(C(F)(F)F)O1 (stereo not drawn) [Compound 14]
- pIC50 [1, 2]: 6.89
- pIC50 (A17 RT): 4.19

Compound: CCC1(C(F)(F)F)OC(=O)Nc2ccc(Cl)cc21 (stereo not drawn) [Compound 17]
- pIC50 [1, 2]: 5.64
- pIC50 (A17 RT): < 4.00

Compound: COCC#CC1(C(F)(F)F)OC(=O)Nc2ccc(Cl)cc21 (stereo not drawn) [Compound 18]
- pIC50 [1, 2]: 7.82
- IC95 (HIV-1 (wild-type); [3]): 50 nM
- pIC50 (A17 RT): 5.58

Compound: CCCCC1(C(F)(F)F)OC(=O)Nc2ccc(Cl)cc21 (stereo not drawn) [Compound 19]
- pIC50 [1, 2]: 7.62
- pIC50 (A17 RT): 4.60

Compound: O=C1Nc2ccc(Cl)cc2C(c2ccccc2)(C(F)(F)F)O1 (stereo not drawn) [Compound 20]
- pIC50 [1, 2]: 6.84
- pIC50 (A17 RT): 4.00

Compound: O=C1Nc2ccc(Cl)cc2C(Sc2ccccc2)(C(F)(F)F)O1 (stereo not drawn) [Compound 21]
- pIC50 [1, 2]: 6.07
- pIC50 (A17 RT): 3.90

Compound: O=C1Nc2ccc(Cl)cc2C(CCc2ccccc2)(C(F)(F)F)O1 (stereo not drawn) [Compound 22]
- pIC50 [1, 2]: 7.26
- pIC50 (A17 RT): 5.44

Compound: C=CC1(C(F)(F)F)OC(=O)Nc2ccc(Cl)cc21 (stereo not drawn) [Compound 23]
- pIC50 [1, 2]: 5.89
- pIC50 (A17 RT): < 4.52

Compound: CN(C)CC#CC1(C(F)(F)F)OC(=O)Nc2ccc(Cl)cc21 (stereo not drawn) [Compound 24]
- pIC50 [1, 2]: 7.37
- IC95 (HIV-1 (wild-type); [3]): 100 nM
- pIC50 (A17 RT): 5.71

Compound: C=CCC1(C(F)(F)F)OC(=O)Nc2ccc(Cl)cc21 (stereo not drawn) [Compound 25]
- pIC50 [1, 2]: 6.66
- pIC50 (A17 RT): < 4.00

Compound: O=C1Nc2ccc(Cl)cc2C(C#CCO)(C(F)(F)F)O1 (stereo not drawn) [Compound 27]
- pIC50 [1, 2]: 6.26
- pIC50 (A17 RT): < 4.00

Compound: CCCC1(C2CC2)OC(=O)Nc2ccc(Cl)cc21 (stereo not drawn) [Compound 28]
- pIC50 [1, 2]: 6.51
- IC95 (HIV-1 (wild-type); [3]): 1500 nM
- pIC50 (A17 RT): 3.94

Compound: C#CC1(CCC)OC(=O)Nc2ccc(Cl)cc21 (stereo not drawn) [Compound 29]
- pIC50 [1, 2]: 5.72
- pIC50 (A17 RT): < 4.00

Compound: COCC#CC1(C2CC2)OC(=O)Nc2ccc(Cl)cc21 (stereo not drawn) [Compound 30]
- pIC50 [1, 2]: 6.39
- pIC50 (A17 RT): 5.52

Compound: CN(C)CC#CC1(C2CC2)OC(=O)Nc2ccc(Cl)cc21 (stereo not drawn) [Compound 31]
- pIC50 [1, 2]: 6.39
- pIC50 (A17 RT): 5.37

Compound: CCCC1(c2ccccc2)OC(=O)Nc2ccc(Cl)cc21 (stereo not drawn) [Compound 32]
- pIC50 [1, 2]: 5.27

Compound: CCC1(c2ccccc2)OC(=O)Nc2ccc(Cl)cc21 (stereo not drawn) [Compound 33]
- pIC50 [1, 2]: 6.52

Compound: CCC1(CC)OC(=O)Nc2ccc(Cl)cc21 [Compound 34]
- pIC50 [1, 2]: 4.78
- pIC50 (A17 RT): < 3.52

Compound: C#CC1(c2ccccc2)OC(=O)Nc2ccc(Cl)cc21 (stereo not drawn) [Compound 35]
- pIC50 [1, 2]: 6.19
- pIC50 (A17 RT): < 3.52

Compound: CCCC1(CC)OC(=O)Nc2ccc(Cl)cc21 (stereo not drawn) [Compound 36]
- pIC50 [1, 2]: 7.28
- pIC50 (A17 RT): < 3.52

Compound: CCCC1(C(C)(C)C)OC(=O)Nc2ccc(Cl)cc21 (stereo not drawn) [Compound 37]
- pIC50 [1, 2]: 5.28
- pIC50 (A17 RT): < 4.00

Compound: S=C1Nc2ccc(Cl)cc2C(C2CC2)(C2CC2)O1 [Compound 38]
- pIC50 [1, 4]: 6.87
- pIC50 (A17 RT): < 3.52

Compound: CCC1(C2CC2)OC(=S)Nc2ccc(Cl)cc21 (stereo not drawn) [Compound 39]
- pIC50 [1, 4]: 6.29
- pIC50 (A17 RT): < 3.52

Compound: CCCC1(C2CC2)OC(=S)Nc2ccc(Cl)cc21 (stereo not drawn) [Compound 40]
- pIC50 [1, 4]: 7.32
- pIC50 (A17 RT): 4.54

Compound: CCCC1(C2CCCC2)OC(=S)Nc2ccc(Cl)cc21 (stereo not drawn) [Compound 41]
- pIC50 [1, 4]: 5.85
- pIC50 (A17 RT): < 3.52

Compound: CCCCC1(c2ccccc2)OC(=S)Nc2ccc(Cl)cc21 (stereo not drawn) [Compound 42]
- pIC50 [1, 4]: 5.84

Compound: CCCC1(c2ccccc2)OC(=S)Nc2ccc(Cl)cc21 (stereo not drawn) [Compound 43]
- pIC50 [1, 4]: 6.21

Compound: CCC1(c2ccccc2)OC(=S)Nc2ccc(Cl)cc21 (stereo not drawn) [Compound 44]
- pIC50 [1, 4]: 7.82
- IC95 (HIV-1 (wild-type); Table II, concentration reducing spread of infection by at least 95%, MT-4 cells): 100 nM
- pIC50 (A17 RT): < 3.52

Compound: CCC1(CC)OC(=S)Nc2ccc(Cl)cc21 [Compound 45]
- pIC50 [1, 4]: 6.25
- pIC50 (A17 RT): < 3.52

Compound: S=C1Nc2ccc(Cl)cc2C(c2ccccc2)(C2CC2)O1 (stereo not drawn) [Compound 46]
- pIC50 [1, 4]: 7.39
- pIC50 (A17 RT): < 3.52
